Several values for one entry are separate records, joined by “and”; a condition that tells them apart may be missing. Identical values can stand only once.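 Briefly, cells in 96-well plates were exposed to five compound concentrations for 48 h, and endpoints were estimated by linear interpolation. Here, GI50 denotes the concentration required for 50% inhibition of growth. TGI marks complete inhibition of growth.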
Experiments:
Assay in all cases: NCI-60 cell line screen, 48 h
UACC-62 melanoma = test system: UACC-62 melanoma
RXF 393 renal = test system: RXF 393 renal
SNB-19 CNS = test system: SNB-19 CNS
SF-268 CNS = test system: SF-268 CNS
SK-MEL-2 melanoma = test system: SK-MEL-2 melanoma
HCT-116 colon = test system: HCT-116 colon
786-0 renal = test system: 786-0 renal
UO-31 renal = test system: UO-31 renal
OVCAR-4 ovarian = test system: OVCAR-4 ovarian
SF-295 CNS = test system: SF-295 CNS

SMILES | TGI (UACC-62 melanoma) | TGI (RXF 393 renal) | TGI (SNB-19 CNS) | TGI (SF-268 CNS) | TGI (SK-MEL-2 melanoma) | TGI (HCT-116 colon) | TGI (786-0 renal) | TGI (UO-31 renal) | TGI (OVCAR-4 ovarian) | TGI (SF-295 CNS) | GI50 (OVCAR-4 ovarian) | GI50 (UACC-62 melanoma) | GI50 (SF-295 CNS) | GI50 (SNB-19 CNS) | GI50 (SF-268 CNS) | GI50 (SK-MEL-2 melanoma) | GI50 (HCT-116 colon) | GI50 (786-0 renal) | GI50 (UO-31 renal) | GI50 (RXF 393 renal)
S=c1[nH]c(=S)c2nnn(-c3ccccc3)c2[nH]1 | > 100 µM | > 100 µM | > 100 µM | > 100 µM | > 100 µM | 4.49 µM | > 100 µM | > 100 µM |  |  |  |  |  |  |  |  |  |  |  | 
O=C(O)c1ccc(OCc2ccccc2)c(Cl)c1 | > 100 µM | > 100 µM | > 100 µM | > 100 µM | > 100 µM | > 100 µM | > 100 µM | > 100 µM | > 100 µM | > 100 µM |  |  |  |  |  |  |  |  |  | 
O=C1c2ccccc2-c2c1c1ccccc1c(=O)n2CCCCl | 23.9 µM |  | > 100 µM | 80.8 µM | > 100 µM | 17.8 µM | 18.2 µM | 69.2 µM | > 100 µM | 23.1 µM | > 100 µM | 6.75 µM | 6.34 µM | 34.2 µM | 10.3 µM | 47.4 µM | 3.65 µM | 4.86 µM | 6.47 µM | 
Cc1cc(C)c(/C=C2\C(=O)Nc3ccc(NC(=O)CCCCCCC(=O)NO)cc32)[nH]1 | 2.75 µM | > 75.2 µM | > 100 µM | > 100 µM | 49.8 µM | 4.86 µM | > 100 µM | > 100 µM | > 100 µM | > 45.7 µM | 8.34 µM | 0.407 µM | 1.44 µM | 0.93 µM | 1.62 µM | 1.89 µM | 0.3 µM | 15.1 µM | > 100 µM | 1.17 µM
O=C(c1ccc(/C=C/c2n[nH]c3ccccc23)cc1)N1CCNCC1 | 3.83 µM and 24.8 µM | > 10 µM and 6.94 µM | > 10 µM and 33.2 µM | > 10 µM and 18.9 µM | > 10 µM and 20.5 µM | 2.88 µM and 20.9 µM | > 10 µM and 23 µM | > 10 µM and 15.1 µM | > 10 µM and 26 µM | > 10 µM and 21.9 µM | > 10 µM and 3.82 µM | 1.72 µM and 11.3 µM | 3.15 µM and 5.28 µM | 4.26 µM and 15.8 µM | 8.61 µM and 4.34 µM | 4.53 µM and 6.85 µM | 1.5 µM and 2.02 µM | 9.53 µM and 7.98 µM | 2.94 µM and 2.95 µM | 2.66 µM and 1.99 µM
CC(C)C(=O)Nc1nc2c(ncn2C2OC(CO)C(O)C2O)c(=O)[nH]1 (configuration not stated) | > 100 µM | > 100 µM |  | > 100 µM | > 100 µM | > 100 µM | > 100 µM | > 100 µM | > 100 µM | > 100 µM |  |  |  |  |  |  |  |  |  | 
NCCSc1nc(-c2ccccc2)c(-c2ccccc2)o1 | > 100 µM | > 100 µM | > 100 µM | > 100 µM | > 100 µM | > 100 µM | > 100 µM | > 100 µM | > 100 µM | > 100 µM |  |  |  |  |  |  |  |  |  | 
COC(=O)[C@H]1C=C[C@@H](C)n2c(=O)c3cc4ccccc4cc3c(=O)n21 |  | > 100 µM | > 100 µM | > 100 µM | > 100 µM | > 100 µM | > 100 µM | > 100 µM |  | > 100 µM |  |  |  |  |  |  |  |  |  | 
Cc1ccc(C)c(N=C2NC(=O)C(CC(=O)Nc3ccc(Cl)cc3Cl)S2)c1 (configuration not stated) | > 100 µM | > 100 µM | > 100 µM | > 100 µM | > 100 µM |  | > 100 µM | > 100 µM | > 100 µM | > 100 µM |  |  |  |  |  |  |  |  |  | 

Source: PubChem BioAssay (NCI)
